Values joined by “and” are separate entries in the source; they are usually repeats but may differ in a detail not shown here. Equal entries are not always repeated. Inconclusive results and toxic doses are left out.
Test system: BDF1 mice, P388 leukemia ip, median survival T/C
Assay: NCI In Vivo Anticancer Drug Screen. Data for tumor model P388 Leukemia (intraperitoneal) in B6D2F1 (BDF1) mice
Details: endpoint: median survival time, higher = longer survival
Procedure, shortened: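 T/C = treated-group survival ÷ vehicle-control survival; tumour transplanted into mice before dosing.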

[1] = dose: 100.0 mg/kg/injection, schedule: Q01DX009 (ip), vehicle: saline with Tween-80
[2] = dose: 200.0 mg/kg/injection, schedule: Q01DX009 (ip), vehicle: saline with Tween-80
[3] = dose: 400.0 mg/kg/injection, schedule: Q04DX003 (ip), vehicle: saline with Tween-80
[4] = dose: 50.0 mg/kg/injection, schedule: Q01DX009 (ip), vehicle: saline with Tween-80
[5] = dose: 12.5 mg/kg/injection, schedule: Q01DX009 (ip), vehicle: Klucel (hydroxypropylcellulose) (HPC)
[6] = dose: 25.0 mg/kg/injection, schedule: Q01DX009 (ip), vehicle: Klucel (hydroxypropylcellulose) (HPC)

O=C(Nc1cccc(Cl)c1Cl)SCCSC(=O)Nc1cccc(Cl)c1Cl
T/C (dose: 12.5 mg/kg/injection, schedule: Q01DX009 (ip), vehicle: gum acacia): 118 % of control
T/C (dose: 25.0 mg/kg/injection, schedule: Q01DX009 (ip), vehicle: gum acacia): 100 % of control
T/C (dose: 50.0 mg/kg/injection, schedule: Q01DX009 (ip), vehicle: gum acacia): 118 % of control

Nc1ccn(C2OC(COP(=O)(O)O)C(O)C2O)c(=O)n1 (stereo not given)
T/C (dose: 4.2 mg/kg/injection, schedule: Q04DX003 (ip), vehicle: saline with Tween-80): 113 % of control
T/C (dose: 6.3 mg/kg/injection, schedule: Q04DX003 (ip), vehicle: saline with Tween-80): 113 % of control
T/C (dose: 9.6 mg/kg/injection, schedule: Q04DX003 (ip), vehicle: saline): 150 % of control
T/C (dose: 50.0 mg/kg/injection, schedule: Q04DX003 (ip), vehicle: saline): 159 % of control
T/C (dose: 75.0 mg/kg/injection, schedule: Q04DX003 (ip), vehicle: saline): 172 % of control
T/C [1]: 187 % of control
T/C (dose: 115.0 mg/kg/injection, schedule: Q04DX003 (ip), vehicle: saline with Tween-80): 172 % of control
T/C (dose: 175.0 mg/kg/injection, schedule: Q04DX003 (ip), vehicle: saline with Tween-80): 168 % of control
T/C [2]: 112 % of control
T/C (dose: 264.0 mg/kg/injection, schedule: Q04DX003 (ip), vehicle: saline with Tween-80): 181 % of control
T/C [3]: 154 % of control
T/C (dose: 600.0 mg/kg/injection, schedule: Q04DX003 (ip), vehicle: saline with Tween-80): 177 % of control

CC(=O)OC(C)(C)/C=C/C(=O)[C@](C)(O)[C@H]1[C@H](O)C[C@@]2(C)[C@@H]3CC=C4[C@@H](C[C@H](O)C(=O)C4(C)C)[C@]3(C)C(=O)C[C@]12C
T/C (dose: 0.07 mg/kg/injection, schedule: Q01DX009 (ip), vehicle: saline): 95 % of control
T/C (dose: 0.09 mg/kg/injection, schedule: Q04DX003 (ip), vehicle: saline): 100 % of control
T/C (dose: 0.12 mg/kg/injection, schedule: Q01DX009 (ip), vehicle: saline): 115 % of control
T/C (dose: 0.18 mg/kg/injection, schedule: Q01DX009 (ip), vehicle: saline): 105 % of control
T/C (dose: 0.18 mg/kg/injection, schedule: Q01DX010 (ip), vehicle: carboxymethylcellulose (CMC)): 120 % of control
T/C (dose: 0.18 mg/kg/injection, schedule: Q04DX003 (ip), vehicle: saline): 104 % of control
T/C (dose: 0.25 mg/kg/injection, schedule: Q01DX010 (ip), vehicle: carboxymethylcellulose (CMC)): 113 % of control
T/C (dose: 0.37 mg/kg/injection, schedule: Q01DX010 (ip), vehicle: carboxymethylcellulose (CMC)): 100 % of control
T/C (dose: 0.5 mg/kg/injection, schedule: Q01DX010 (ip), vehicle: carboxymethylcellulose (CMC)): 118 % of control
T/C (dose: 0.75 mg/kg/injection, schedule: Q01DX010 (ip), vehicle: carboxymethylcellulose (CMC)): 115 % of control
T/C (dose: 1.5 mg/kg/injection, schedule: Q01DX010 (ip), vehicle: carboxymethylcellulose (CMC)): 115 % of control
T/C (dose: 132.0 micrograms/kg/injection, schedule: Q01DX009 (ip), vehicle: saline): 112 % of control
T/C (dose: 198.0 micrograms/kg/injection, schedule: Q01DX009 (ip), vehicle: saline): 104 % of control

Cc1ccc(CBr)c2ccccc12
T/C (dose: 6.25 mg/kg/injection, schedule: Q01DX009 (ip), vehicle: saline with Tween-80): 102 % of control
T/C (dose: 12.5 mg/kg/injection, schedule: Q01DX009 (ip), vehicle: saline with Tween-80): 114 % of control
T/C (dose: 25.0 mg/kg/injection, schedule: Q01DX009 (ip), vehicle: saline with Tween-80): 124 % of control
T/C [4]: 105 % of control
T/C [1]: 121 % of control

CC(C)C(=O)c1ccc([N+](=O)[O-])o1
T/C [4]: 115 % of control
T/C [1]: 111 % of control
T/C (dose: 100.0 mg/kg/injection, schedule: Q04DX003 (ip), vehicle: saline with Tween-80): 107 % of control
T/C [2]: 109 % of control
T/C (dose: 200.0 mg/kg/injection, schedule: Q04DX003 (ip), vehicle: saline with Tween-80): 116 % of control
T/C (dose: 400.0 mg/kg/injection, schedule: Q01DX009 (ip), vehicle: saline with Tween-80): 107 % of control
T/C [3]: 109 % of control

CC1(CCC(=O)/C=C/c2ccccc2)CCC/C(=C/c2ccccc2)C1=O (stereo not given)
T/C [5]: 110 % of control
T/C [6]: 115 % of control
T/C (dose: 50.0 mg/kg/injection, schedule: Q01DX009 (ip), vehicle: Klucel (hydroxypropylcellulose) (HPC)): 110 % of control
T/C (dose: 75.0 mg/kg/injection, schedule: Q01DX009 (ip), vehicle: Klucel (hydroxypropylcellulose) (HPC)): 100 % of control
T/C (dose: 115.0 mg/kg/injection, schedule: Q01DX009 (ip), vehicle: Klucel (hydroxypropylcellulose) (HPC)): 100 % of control
T/C (dose: 170.0 mg/kg/injection, schedule: Q01DX009 (ip), vehicle: Klucel (hydroxypropylcellulose) (HPC)): 95 % of control

CCOC(=O)N(C)c1ccc(Cl)cc1C(N)=O
T/C (dose: 100.0 mg/kg/injection, schedule: Q04DX003 (ip), vehicle: Klucel (hydroxypropylcellulose) (HPC)): 100 % of control
T/C (dose: 200.0 mg/kg/injection, schedule: Q04DX003 (ip), vehicle: Klucel (hydroxypropylcellulose) (HPC)): 94 % of control
T/C (dose: 400.0 mg/kg/injection, schedule: Q04DX003 (ip), vehicle: Klucel (hydroxypropylcellulose) (HPC)): 115 % of control

CCOC(=O)C(Cc1ccc(N(CCCl)CCCl)cc1)NP1(=O)NCCCO1 (stereo not given)
T/C (dose: 6.25 mg/kg/injection, schedule: Q01DX009 (ip), vehicle: Klucel (hydroxypropylcellulose) (HPC)): 153 % of control
T/C (dose: 9.0 mg/kg/injection, schedule: Q04DX003 (ip), vehicle: Klucel (hydroxypropylcellulose) (HPC)): 169 % of control
T/C (dose: 9.5 mg/kg/injection, schedule: Q04DX003 (ip), vehicle: Klucel (hydroxypropylcellulose) (HPC)): 154 % of control
T/C (dose: 12.0 mg/kg/injection, schedule: Q04DX003 (ip), vehicle: Klucel (hydroxypropylcellulose) (HPC)): 209 % of control
T/C [5]: 230 % of control
T/C (dose: 14.5 mg/kg/injection, schedule: Q04DX003 (ip), vehicle: Klucel (hydroxypropylcellulose) (HPC)): 166 % of control
T/C (dose: 22.0 mg/kg/injection, schedule: Q04DX003 (ip), vehicle: Klucel (hydroxypropylcellulose) (HPC)): 166 % of control
T/C [6]: 230 % of control
T/C (dose: 25.0 mg/kg/injection, schedule: Q04DX003 (ip), vehicle: Klucel (hydroxypropylcellulose) (HPC)): 272 % of control
T/C (dose: 33.0 mg/kg/injection, schedule: Q04DX003 (ip), vehicle: Klucel (hydroxypropylcellulose) (HPC)): 250 % of control and 212 % of control
T/C (dose: 50.0 mg/kg/injection, schedule: Q04DX003 (ip), vehicle: Klucel (hydroxypropylcellulose) (HPC)): 250 % of control and 181 % of control
T/C (dose: 75.0 mg/kg/injection, schedule: Q04DX003 (ip), vehicle: Klucel (hydroxypropylcellulose) (HPC)): 91 % of control

CN(C)c1cc2c3c(c1)CCCN3CCC2
T/C (dose: 3.13 mg/kg/injection, schedule: Q01DX009 (ip), vehicle: saline): 95 % of control
T/C (dose: 6.25 mg/kg/injection, schedule: Q01DX009 (ip), vehicle: saline): 100 % of control
T/C (dose: 12.5 mg/kg/injection, schedule: Q01DX009 (ip), vehicle: saline): 113 % of control

COc1ccc(/C=C/C(=O)c2ccc(OC)c(OCc3ccccc3)c2)cc1OC
T/C (dose: 25.0 mg/kg/injection, schedule: Q01DX009 (ip), vehicle: water): 97 % of control
T/C (dose: 50.0 mg/kg/injection, schedule: Q01DX009 (ip), vehicle: water): 100 % of control and 121 % of control
T/C (dose: 50.0 mg/kg/injection, schedule: Q04DX003 (ip), vehicle: water): 100 % of control
T/C (dose: 100.0 mg/kg/injection, schedule: Q01DX009 (ip), vehicle: water): 100 % of control and 111 % of control
T/C (dose: 100.0 mg/kg/injection, schedule: Q04DX003 (ip), vehicle: water): 94 % of control
T/C (dose: 200.0 mg/kg/injection, schedule: Q01DX009 (ip), vehicle: water): 95 % of control and 101 % of control
T/C (dose: 200.0 mg/kg/injection, schedule: Q04DX003 (ip), vehicle: water): 86 % of control
T/C (dose: 400.0 mg/kg/injection, schedule: Q01DX009 (ip), vehicle: water): 97 % of control
T/C (dose: 400.0 mg/kg/injection, schedule: Q04DX003 (ip), vehicle: water): 88 % of control
T/C (dose: 600.0 mg/kg/injection, schedule: Q01DX009 (ip), vehicle: water): 91 % of control

Cc1[nH]c(=S)[nH]c(=O)c1CN(CCO)CCO
T/C (dose: 50.0 mg/kg/injection, schedule: Q01DX001 (ip), vehicle: Klucel (hydroxypropylcellulose) (HPC)): 96 % of control
T/C (dose: 100.0 mg/kg/injection, schedule: Q01DX001 (ip), vehicle: Klucel (hydroxypropylcellulose) (HPC)): 96 % of control
T/C (dose: 200.0 mg/kg/injection, schedule: Q01DX001 (ip), vehicle: Klucel (hydroxypropylcellulose) (HPC)): 96 % of control

OCC1CSCN1 (stereo not given)
T/C (dose: 50.0 mg/kg/injection, schedule: Q04DX002 (ip), vehicle: saline): 100 % of control
T/C (dose: 100.0 mg/kg/injection, schedule: Q04DX002 (ip), vehicle: saline): 103 % of control
T/C (dose: 200.0 mg/kg/injection, schedule: Q04DX002 (ip), vehicle: saline): 98 % of control
